Measurements from patent US12139729B2, “Neurodegenerative disorders” (priority 2013, dated 2024).
Like-named read-outs stand apart in the source and are kept apart here. Residues, ends and D or L forms follow the SMILES beside them. No end group written: not given here.

Legend:
[1] = Cell Counting Kit-8 (CCK-8) cell viability assay; format: cell-based
From the text: A Cell Counting Kit-8 (CCK-8) was used as an improvement of the SRB technique used before. By utilizing the highly water-soluble tetrazolium salt WST-8, CCK-8 produces a water-soluble formazan dye upon reduction in the presence of an electron carrier. WST-8 is reduced by dehydrogenases in cells to give a yellow colored product (formazan), which is soluble in the tissue culture medium. The amount of the formazan dye generated by the activity of dehydrogenases in cells is directly proportional to the number of living cells. PC12 cells are plated in 200 μl of complete growth medium the day before the experiment in 96 well plates. Treatments with T30 and NBP-14 are added and incubated for 1 hour in the incubator.
Subsequently, 100 μl of growth medium is removed and 10 μl of CCK-8 (Cell Counting Kit-8) solution is added. The plate is incubated for 2 hours in the incubator and then placed in the absorbance plate reader. The absorbance must be measured at 450 nm.

[2] = Sulforhodamine B (SRB) cell viability assay; format: cell-based; conditions: 1 hour
Method: Wild-type PC12 cell were provided by Sigma-Aldrich (St. Louis, MO). The culture was routinely plated in 100 mm dishes (Corning) coated with collagen (2 μg/cm^2) and maintained in growth medium with Minimum Essential Medium Eagle (MEM) supplemented with heat-inactivated 10% horse serum (HS) and 5% foetal bovine serum (FBS), 10 mM HEPES, 2 mM L-Glutamine and 1:400 Penicillin/streptomycin solution. Cells were maintained at 37° C. in a humidified atmosphere 5% CO2 and the medium was replaced every 2 days. For splitting, cells were dislodged from the dish using a pipette with medium, with a portion of these replated onto new cultured dishes. Cells were used between passages 12 and 25.
The cell viability assay used was the sulforhodamine B (SRB) colorimetric assay for toxicity screening. The day before of the experiment cells were seeded onto collagen-coated 96-well plates in a concentration of 40,000 cells/well. Cell concentration was determined by the Fuchs-Rosenthal chamber. […] After treatment, medium was replaced and cells were fixed by adding 100 μl of 10% Trichloroacetic Acid (TCA) for 1 h at 4° C. Thereafter, cells were washed with H2O and stained with 100 μl of a 0.057% SRB solution in 1% Acetic acid (HAc) for 30 minutes at room temperature. After staining cells were washed with 1% HAc for removing the excess of SRB and then incubated with 200 μl of 10 mM Tris base (pH 10.5) and shake it for 5 minutes to solubilise the protein-bound dye. Measurement of the absorbance took place in a VMax Kinetic Microplate Reader (Molecular Devices) at 490 nm.

[3] = biological target: allosteric site on the α7 nicotinic-receptor (Rattus norvegicus, UniProt Q05941); experiment: Binding affinity for the allosteric site of the α7 nicotinic-receptor, using tests for viability
[4] = system: Amyloid Precursor Protein (APP); experiment: Western blot detection of full-length APP in solubilized PC12 cells; format: cell-based; conditions: 1 hour
Method: PC12 cells are plated with growth medium in Petri Dishes for a week in order to have enough protein to detect APP in PC12 membranes and treated for 1 hour with T30 and NBP-14 before solubilizing the protein. Once the cells have grown until 90% confluence, the growth medium is removed and cells are re-suspended in 2 ml of HBSS. The cells suspension is transferred to a 15 ml tube and centrifuge 5 minutes at 1000 rpm. Then the supernatant is discarded and the pellet is re-suspended in Lysis buffer (20 mM Tris, 137 mM NaCl, 1% Triton X-100, 2 mM EDTA; pH 8) plus protease inhibitors (1 μl:1 ml PMSF and 3 μl:1 ml Aprotinin) and triturated by using a Polytron for 10 seconds. Subsequently, the triturated pellet is distributed in 1.5 ml eppendorfs and rotated or shaken for 2 h at 4° C. […] The Bradford reagent is used to quantify the protein contained in each eppendorf. […]
The steps for electrophoresis are the following: • a) Prepare the lower and the upper acrilamide gels. The % for APP gel is 10% lower gel and 5% stacking gel. • b) Prepare 24 μl of sample at a concentration of 25 μg (determined by the Bradford Assay) (6 μl SB 4× containing β-mercaptoethanol+protein+lisis) and boil them at 100° C. for 5 minutes to denaturalize them. • c) Put the protein marker and the samples in the wells of the gel (20-30 μL). • d) Proceed to Migration: 35 mA (nearly 1 hour). […]

Chain of allosteric site on the α7 nicotinic-receptor (Q05941 23-502): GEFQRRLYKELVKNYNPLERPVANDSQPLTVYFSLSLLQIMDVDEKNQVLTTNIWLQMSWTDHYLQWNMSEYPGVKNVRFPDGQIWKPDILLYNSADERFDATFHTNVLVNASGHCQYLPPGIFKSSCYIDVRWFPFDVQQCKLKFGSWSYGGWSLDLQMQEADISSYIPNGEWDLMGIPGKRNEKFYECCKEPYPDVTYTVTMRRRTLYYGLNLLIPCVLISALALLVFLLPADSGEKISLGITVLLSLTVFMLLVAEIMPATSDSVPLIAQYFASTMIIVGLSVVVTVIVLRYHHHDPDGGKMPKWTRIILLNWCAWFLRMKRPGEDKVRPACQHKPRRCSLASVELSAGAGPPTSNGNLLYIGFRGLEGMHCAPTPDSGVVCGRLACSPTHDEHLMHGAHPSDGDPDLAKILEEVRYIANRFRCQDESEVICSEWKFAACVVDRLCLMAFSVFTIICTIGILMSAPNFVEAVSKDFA

“KAEFHRWSSYMVHWKNQFDHYSKQDRCSDL [T30, reference compound]” showed a viability ([1]; T30 5 uM alone, 1 hour, N=3, read-out: cell viability) of 74.3%, a cytotoxicity ([1]; T30 5 uM, read-out: decrease of cell viability) of 25% and a viability at 10 µM ([2]; 10 μM, PC12, read-out: cell viability, peptide alone) of 68.4 ± 3.1%. The “binding affinity for the allosteric site on the α7 nicotinic-receptor” value [3] was 5 nM and the “levels of full length APP (control 100%)” value ([4]; T30 5 μM) was 67.82%±6.23.
In the case of `CSCC[C@@H]1NC(=O)[C@H](Cc2ccc(O)cc2)NC(=O)[C@H](CO)NC(=O)[C@H](CO)NC(=O)[C@H](Cc2c[nH]c3ccccc23)NC(=O)[C@H](CCCNC(=N)N)NC(=O)[C@H](Cc2c[nH]cn2)NC(=O)[C@H](Cc2ccccc2)NC(=O)[C@H](CCC(=O)O)NC(=O)[C@H](C)NC(=O)[C@H](CCCCN)NC(=O)[C@H](Cc2c[nH]c3ccccc23)NC(=O)[C@H](Cc2c[nH]cn2)NC(=O)[C@H](C(C)C)NC1=O` [Cyclic T14] (cyclo(AEFHRWSSYMVHWK)), the viability ([1]; T30 5 uM + NBP-14 5 nM (1st of 10 values), read-out: cell viability, T30 + NBP-14) is reported as 76.2 ± 7.51%, the viability ([1]; T30 5 uM + NBP-14 7 nM (2nd of 10 values), read-out: cell viability, T30 + NBP-14) is reported as 67 ± 4.35% and the viability ([1]; T30 5 uM + NBP-14 9 nM (3rd of 10 values), read-out: cell viability, T30 + NBP-14) is reported as 76 ± 4.22%. The viability ([1]; T30 5 uM + NBP-14 10 nM (4th of 10 values), read-out: cell viability, T30 + NBP-14) was 71.4 ± 1.64%, the viability ([1]; T30 5 uM + NBP-14 20 nM (5th of 10 values), read-out: cell viability, T30 + NBP-14) was 79 ± 10.2% and the viability ([1]; T30 5 uM + NBP-14 50 nM (6th of 10 values), read-out: cell viability, T30 + NBP-14) was 75.2 ± 3.9%. For the same compound, the viability ([1]; T30 5 uM + NBP-14 70 nM (7th of 10 values), read-out: cell viability, T30 + NBP-14) was 62.4 ± 3.01%, the viability ([1]; T30 5 uM + NBP-14, 8th of 10 values, concentration unclear, read-out: cell viability, T30 + NBP-14) was 78.1 ± 2.16% and the viability ([1]; T30 5 uM + NBP-14, 9th of 10 values, concentration unclear, read-out: cell viability, T30 + NBP-14) was 117 ± 3.62%. The viability ([1]; T30 5 uM + NBP-14, 10th of 10 values, concentration unclear, read-out: cell viability, T30 + NBP-14) was 108 ± 5.1%, the viability ([2]; T30 10 μM + Cyclic T14 100 nM, read-out: cell viability, T30 combined with Cyclic T14) was 88.6 ± 8.79% and the viability ([2]; cell viability, β-amyloid combined with Cyclic T14, β-Amyloid 10 μM + Cyclic T14 100 nM) was 94.5 ± 7.4%. It also gave a viability ([2]; cell viability, β-amyloid combined with Cyclic T14, β-Amyloid (10 μM) + Cyclic T14 0.5 nM) of 88.5 ± 10%, a viability ([2]; cell viability, β-amyloid combined with Cyclic T14, β-Amyloid (10 μM) + Cyclic T14 1 nM) of 97.3 ± 9.57% and a viability ([2]; cell viability, β-amyloid combined with Cyclic T14, β-Amyloid (10 μM) + Cyclic T14 10 nM) of 102 ± 8.53%. For the same compound, the viability ([2]; cell viability, β-amyloid combined with Cyclic T14, β-Amyloid (10 μM) + Cyclic T14 50 nM) was 102 ± 14%, the viability at 10 µM ([2]; cell viability, β-amyloid combined with Cyclic T14, β-Amyloid (10 μM) + Cyclic T14 'moo' (nM)) was 104 ± 6.34% and the viability at 1 h, 0.1 µM ([2]; rat, PC12 cells (wild-type), Cyclic T14 alone 100 nM, PC12) was 98.8 ± 15.2%. For the same compound, the viability at 1 h, 0.7 µM ([2]; rat, PC12 cells (wild-type), Cyclic T14 alone 700 nM, PC12) was 107 ± 19.9%, the viability at 1 h, 1 µM ([2]; rat, PC12 cells (wild-type), Cyclic T14 alone 1 μM, PC12) was 105 ± 10.9% and the viability at 1 h, 100 µM ([2]; rat, PC12 cells (wild-type), Cyclic T14 alone 100 μM, PC12) was 93.6 ± 11.6%. For the same compound, the “affinity (Table 3 feature)” value ([3]; ✓ = Dream Drug feature 'Nanomolar affinity') was “✓”, the “receptor specificity (Table 3 feature)” value ([3]; ✓ = Dream Drug feature 'Specific action at α7 receptor') was “✓” and the “levels of full length APP (control 100%)” value ([4]; T30 5 μM + NBP-14 0.5 μM) was 126%±1.12.
